Columns and labels:
Conditions in all cases: mean ± S.D., n = 3
[1] = Cupric reducing antioxidant capacity (CUPRAC)
Experimental: For the cupric ion reducing activity (CUPRAC) activity assay, sample solution was added to premixed reaction mixture containing CuCl2 (1 mL, 10 mM), neocuproine (1 mL, 7.5 mM) and NH4Ac buffer (1 mL, 1 M, pH 7.0). Similarly, a blank was prepared by adding sample solution (0.5 mL) to premixed reaction mixture […] without CuCl2. Then, the sample and blank absorbances were read at 450 nm after a 30 min incubation at room temperature. The absorbance of the blank was subtracted from that of the sample. CUPRAC activity was expressed as IC50 values.

[2] = ABTS scavenging ability test
Experimental: For the 2,2′-azino-bis(3-ethylbenzothiazoline) 6-sulfonic acid (ABTS) radical scavenging assay, ABTS+ was produced directly by reacting 7 mM ABTS solution with 2.45 mM potassium persulfate and allowing the mixture to stand for […] in the dark at room temperature. Prior to beginning the assay, ABTS solution was diluted with methanol to an absorbance of 0.700 ± 0.02 at 734 nm. Sample solution was added to ABTS solution (2 mL) and mixed. The sample absorbance was read at 734 nm after a 30 min incubation at room temperature. The ABTS radical scavenging activity was expressed as IC50 values.

[3] = Ferric reducing antioxidant power (FRAP)
Experimental: For the ferric reducing antioxidant power (FRAP) activity assay, sample solution was added to premixed FRAP reagent (2 mL) containing acetate buffer (0.3 M, pH 3.6), 2,4,6-tris(2-pyridyl)-S-triazine (TPTZ) (10 mM) in 40 mM HCl and ferric chloride (20 mM) in a ratio of 10:1:1 (v/v/v). Then, the sample absorbance was read at 593 nm after a 30 min incubation at room temperature. FRAP activity was expressed as IC50 values.

[4] = DPPH scavenging ability test
Experimental: For the 1,1-diphenyl-2-picrylhydrazyl (DPPH) radical scavenging assay, sample solution was added to 4 mL of a 0.004% methanol solution of DPPH. The sample absorbance was read at 517 nm after a 30 min incubation at room temperature in the dark. DPPH radical scavenging activity was expressed as IC50 values.

Cc1c(C)c2c(c(C)c1O)CCC(C)(C(=O)O)O2 (stereo not shown) [Trolox]
IC50 [1]: 500 ± 10 µM | IC50 [2]: 410 ± 10 µM | IC50 [3]: 180 ± 10 µM | IC50 [4]: 210 ± 10 µM

From PMC7279038, “Antioxidant and Neuroprotective Effects Induced by Cannabidiol and Cannabigerol in Rat CTX-TNA2 Astrocytes and Isolated Cortexes” (International Journal of Molecular Sciences, 2020)
